# Experimental data from USRE39138E1, “Monoclonal antibody specific for advanced glycosylation endproducts in biological samples” (Alteon Incorporated, priority 1994, dated 2006).
# pIC50: −log10 of the molar value.
# Columns and labels:
# Hb-AGE = conditions: diabetic patients treated for 28 days; cited from earlier work
# mAb 4G9 = experiment: competition ELISA: browned compounds compete with plate-bound BSA-AGE for mAb 4G9; type: binding, murine; conditions: concentration based on the original proteins or peptides
# Protocol: Production of AGE proteins. All proteins and peptides were browned with glucose, ribose or glucose 6-phosphate in 300 mM sodium phosphate buffer, pH 7.4, for 8-12 weeks at 37° C. The control proteins were treated the same way except the sugars were omitted.
# The competition ELISA was performed by pre-coating microtiter plates with BSA-AGE and blocking with Assay Buffer. The plates was washed and mAb 4G9 and increasing concentrations of the competitors listed in Table 1 were added and simultaneously incubated for 1 hr at 37° C. The unbound materials were removed by extensive washing and the bound mAb was detected with alkaline phosphatase labeled anti-mouse antibodies similar to direct ELISA. All washes were in TBS-T wash solution: all incubations proceeded for 1 hr at 37° C.
# [1] = protein or peptide browned with ribose
pIC50 (mAb 4G9; protein or peptide browned with glucose),pIC50 (mAb 4G9; [1]),Compound,levels of Hb-AGE at the end of the treatment period (Hb-AGE)
,,N=C(N)NN [aminoguanidine],significantly decreased
3.60,4.30,Arg-lys,
,3.70,Hemoglobin,
